Measurements reported in ChEMBL document CHEMBL1127716, “-Ketothiazole inhibitors of prolyl endopeptidase” (Bioorg Med Chem Lett, 1994).

Molecular target: Prolyl endopeptidase (Sus scrofa, UniProt P23687)
Experiment: Compound was evaluated for the inhibition of Prolyl endopeptidase (PEP) from pig kidney using Z-Gly-Pro-p-nitroanilide as substrate

Chain of Prolyl endopeptidase (P23687 whole entry): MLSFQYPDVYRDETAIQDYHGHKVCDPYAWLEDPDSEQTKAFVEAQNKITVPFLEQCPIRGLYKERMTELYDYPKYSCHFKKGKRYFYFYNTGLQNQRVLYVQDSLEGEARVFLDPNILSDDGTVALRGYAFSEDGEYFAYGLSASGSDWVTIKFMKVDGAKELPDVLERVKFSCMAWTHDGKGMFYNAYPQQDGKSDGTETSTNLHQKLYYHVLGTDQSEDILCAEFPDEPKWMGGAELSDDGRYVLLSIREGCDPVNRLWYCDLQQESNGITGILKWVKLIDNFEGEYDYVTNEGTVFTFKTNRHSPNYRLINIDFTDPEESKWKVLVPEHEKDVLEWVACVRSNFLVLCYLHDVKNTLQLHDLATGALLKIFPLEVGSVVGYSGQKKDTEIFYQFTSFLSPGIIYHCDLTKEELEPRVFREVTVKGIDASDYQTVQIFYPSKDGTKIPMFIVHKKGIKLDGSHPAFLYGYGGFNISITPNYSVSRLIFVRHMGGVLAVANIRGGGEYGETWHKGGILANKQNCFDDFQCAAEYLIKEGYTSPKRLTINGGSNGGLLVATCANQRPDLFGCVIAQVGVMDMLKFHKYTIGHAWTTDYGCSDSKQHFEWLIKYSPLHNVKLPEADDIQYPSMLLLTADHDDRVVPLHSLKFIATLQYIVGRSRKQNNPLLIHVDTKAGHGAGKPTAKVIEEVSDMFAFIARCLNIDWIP

Row | SMILES | IC50 [nM]
1 | O=C(c1cscn1)[C@@H]1CCCN1C(=O)[C@@H]1CCCN1C(=O)CCCc1ccccc1 | 5.9
2 | CCOC(=O)C(=O)[C@@H]1CCCN1C(=O)[C@@H]1CCCN1C(=O)CCCc1ccccc1 | 9.6
